According to patent US7332279B2 (Glycozym APS, priority 1999, dated 2008):

Target: T1, β3Gal-T5 (Homo sapiens, UniProt Q9Y2C3, M85T)
T1 construct: Full length enzymes were assayed with 1% Triton CF54 homogenates of washed cells; made in house; host or cells: Sf9 cells, baculovirus (pVL1193)
T1 sequence (Q9Y2C3 1-310 M85T): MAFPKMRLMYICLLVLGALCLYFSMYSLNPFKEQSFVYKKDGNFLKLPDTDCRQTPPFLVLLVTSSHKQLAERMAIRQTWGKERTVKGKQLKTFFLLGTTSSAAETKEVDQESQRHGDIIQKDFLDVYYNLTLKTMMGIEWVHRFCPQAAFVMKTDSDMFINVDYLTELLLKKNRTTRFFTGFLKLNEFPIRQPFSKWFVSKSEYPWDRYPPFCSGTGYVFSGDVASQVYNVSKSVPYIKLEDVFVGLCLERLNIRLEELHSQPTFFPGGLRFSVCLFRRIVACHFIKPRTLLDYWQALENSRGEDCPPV
Assay: Activity of full coding construct of β3Gal-T5 expressed in Sf9 cells (Triton CF54 homogenates or media)
Assay type: biochemical
Settings: 60 hrs post-infection, acceptor 20 mM
Source text: PCR product was cloned into the BamHI site of pAcGP67B (Pharmingen). […] This PCR product was cloned into the BamHI site of pVL1193 (Pharmingen). Both soluble and full length constructs were fully sequenced to confirm fidelity. Plasmids […]5-full were co-transfected with Baculo-GoldTM DNA (Pharmingen) as described previously (Bennett, […]. and Clausen, H. cDNA cloning and expression of a novel human UDP-N-acetyl-alpha-D-galactosamine. Polypeptide N-acetyl-galactosaminyl-transferase, GalNAc-T3. J. Biol. Chem. 271:17006-17012, 1996). Recombinant Baculo-virus were obtained after two successive amplifications in Sf9 cells grown in serum-containing medium, and titers of virus were estimated by titration in 24-well plates with monitoring of enzyme activities. […] J. Biol. […] J. Biol. […] Polypeptide N-acetyl-galactosaminyl-transferase, GalNAc-T3. J. Biol. Chem. 271:17006-17012, 1996). For large scale expression amplified virus was used to infect High FiveTM cells grown in serum-free media (Invitrogen) in upright roller bottles shaking at 140 rpm and 27° C. The kinetic properties were determined with partially purified, secreted forms of the enzymes. […] Reaction products were quantified by Dowex-1 chromatography. […] The transfer of Gal was evaluated after acid precipitation by filtration through Whatman GF/C glass fibre filters. […]

β3Gal-T5 full coding construct activity, Cells (1% Triton CF54 cell homogenate): 1.5 nmol/min/mL
β3Gal-T5 full coding construct activity, Media (media): 0.1 nmol/min/mL
Compound: CC(=O)N[C@H]1[C@H](OCc2ccccc2)O[C@H](CO)[C@@H](O)[C@@H]1O [β-D-GlcNAc-Bzl]
